Results reported in patent publication US9315503B2, “Kinase inhibitors” (CHIESI FARMACEUTICI S.p.A., priority 2011, dated 2016).

Assays:
p38alpha = target: T1, p38alpha (Homo sapiens, UniProt Q16539); assay: P38Alpha enzyme inhibition assay (Alphascreen kinase activity assay); assay type: biochemical; conditions: 100 pM p38alpha, 250 μM ATP, 2 hours pre-incubation at 25° C., read-out: p38α inhibition (IC50 values)
T1 construct: purchased Invitrogen PV3304
In short: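 p38α (100 pM) with ATF-2 fusion protein substrate (0.3 µg/ml) in pH 7.5 HEPES/MgCl2 buffer, 1% DMSO, preincubated 2 h at 25°C with compound. Reaction started with 250 µM ATP, ran 1 h at 25°C, then stopped with EDTA. Phospho-ATF2 antibody detected by AlphaScreen luminescence; IC50 from concentration-response curves.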

[1] = system: LPS-stimulated TNFα release from PBMCs; assay: LPS-stimulated PBMC TNFα release assay; assay type: cell-based; conditions: inhibition of TNFα release, human PBMCs, LPS 10 ng/ml, 18 h, ELISA, read-out: p38α inhibition (IC50 values)
In short: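 Healthy-donor human PBMCs, density-gradient isolated, preincubated 1 h at 37 °C with compound in 1% FBS RPMI 1640, then stimulated with LPS (10 ng/ml) for 18 h. Supernatant TNFα by ELISA; IC50 from dose-response of % inhibition of control release, n≥3 experiments.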

[2] = system: BAL cell influx induced by TS; assay: Pre-clinical mouse model of COPD: tobacco smoke induced pulmonary inflammation; assay type: in vivo; conditions: mice, 3, 30 or 100 μg/kg, intranasal route, 4 daily TS exposures, BAL 24 h after final exposure (FIG. 1)
From the text: Pre-Clinical Mouse Model of COPD Tobacco Smoke Induced Pulmonary Inflammation.
This timepoint was used in the studies reported here.
Protocols for the exposure of mice to TS, obtaining bronchoalveolar lavage fluid (BALF) and preparation of cytospin slides for differential cell counts are as outlined below.
Daily Exposure of Mice to TS for 4 Consecutive Days.
In this exposure protocol, mice were exposed in groups of 5 in individual clear polycarbonate chambers (27 cm×16 cm×12 cm). The TS from the cigarettes was allowed to enter the exposure chambers at a flow rate of 100 ml/min. In order to minimise any potential problems caused by repeated exposure to a high level of TS, the exposure of the mice to TS was increased gradually over the exposure period to a maximum of 6 cigarettes. […]
Lavage fluid was separated from cells by centrifugation and the supernatant decanted and frozen for subsequent analyses. The cell pellet was re-suspended in a known volume of PBS and total cell numbers calculated by counting a stained (Turks stain) aliquot under a microscope using a haemocytometer. […]
The residual cell pellet was diluted to approximately 10^5 cells per ml. […] Approximately four hundred cells were counted by an unbiased operator using light microscopy. […]
All results are presented as individual data points for each animal and the mean value was calculated for each group. […]

T1 sequence (Q16539 whole entry): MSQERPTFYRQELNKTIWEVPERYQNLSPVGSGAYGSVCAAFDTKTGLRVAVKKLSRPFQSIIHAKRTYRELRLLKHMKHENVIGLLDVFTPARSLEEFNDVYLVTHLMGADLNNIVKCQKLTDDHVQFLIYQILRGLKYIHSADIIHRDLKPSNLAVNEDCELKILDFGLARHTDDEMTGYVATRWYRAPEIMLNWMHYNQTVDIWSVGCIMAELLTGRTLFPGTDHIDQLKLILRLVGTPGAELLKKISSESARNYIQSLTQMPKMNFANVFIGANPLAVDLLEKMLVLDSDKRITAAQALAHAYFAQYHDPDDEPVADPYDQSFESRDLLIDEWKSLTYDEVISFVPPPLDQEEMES

## Cc1ccc(-n2nc(C(C)(C)C)cc2NC(=O)N[C@H]2CC[C@@H](Oc3ccc4nnc([C@@H]5CCCN5C)n4c3)c3ccccc32)cc1 [Example 5, 1-(5-tert-Butyl-2-p-tolyl-2H-pyrazol-3-yl)-3-[(1S,4R)-4-[3-((S)-1-methyl-pyrrolidin-2-yl)-[1,2,4]triazolo[4,3-a]pyridin-6-yloxy)-1,2,3,4-tetrahydro-naphthalen-1-yl]-urea]
p38alpha
  IC50: < 10 nM
[1]
  IC50: < 10 nM
[2]
  BAL cell influx induced by TS: significantly inhibited
